Entries after “also recorded” stand apart in the source; their conditions may differ.
Legend:
Albino Wister Rats = test: Unwanted side-effects on oral administration in rats (hair, body weight, diarrhea, caecal contents, colon histopathology); assay type: in vivo; conditions: p.o., 5-FU 8 mg/day for 5 days, probiotics 1 g/day where given
Procedure: (§1) To answer the questions as above, the inventors adopted an innovative experimental approach using a ‘living biological system’ comprising rats. All the experimental procedures were approved by the Institutional Animal Ethics Committee vide Approval Number 954/ac/06/CPCSEA/09/19. The experimental study was conducted on thirty Wister Albino rats. The animals were divided into 6 groups of five each.
(§2) The dosages were freshly prepared every day by suspending in milk. They were administered by oral gavage needle for first and subsequent exposure for a duration of five days each, at an interval of 20 days.
To address whether the unwanted side-effects of colonic drugs e.g. diarrhea, hair loss etc. could also be reduced or eliminated using the ‘innovative approach’ of the present invention, trials were conducted in animals (rats) using 5-FU as a ‘model’.

[1] = test system: colonic micro flora (caecal contents of the rat); test: In vitro dissolution (drug release) of natural gum based 5-FU delivery systems in medium containing caecal contents of orally treated rats; assay type: physicochemical, Wister Albino rats; conditions: label = treatment given p.o. to the rats whose caecal contents (4% w/v) were used, 5-FU 8 mg/day, probiotics 1 g/day, pH 1.2 for 2 h, pH 6.8 for 3 h, then caecal medium
Procedure: as §1, §2
2 animals from each group were humanely sacrificed for the collection of caecal contents in sterile petri plates, which was immediately utilized for the dissolution studies. For dissolution studies, compression coated tablets of 5-FU with natural gums and microspheres of 5-FU with natural gums were used. The experiments were carried out in 250 ml beaker immersed in water maintained in the jars of dissolution test apparatus. Initial studies were carried out in 150 ml of 0.1N HCl (pH 1.2) for 2 h. After this, NaOH was added to the dissolution media and the pH was adjusted to 6.8. The volume was made up to 200 ml with phosphate buffer of pH 6.8. The study was continued for 3 hours after which, caecal contents (4% w/v) were added. […]

Q: How did the body weight loss (Albino Wister Rats) turn out when `O=c1[nH]cc(F)c(=O)[nH]1` [5-FU powder, 5-Fluorouracil] was run?
A: loss

Q: What about the diarrhea (Albino Wister Rats) of the same compound?
A: bloody diarrhea

Q: And the “histopathological examination of the colon” value (Albino Wister Rats)?
A: ulceration and loss of epithelial lining; also recorded: diffuse ulceration of the colonic mucosa with loss of lining epithelium

Q: What about the loss of hair (Albino Wister Rats) of the same compound?
A: loss of hair

Q: What about the body weight loss (Albino Wister Rats; listed as 5-FU) of the same compound?
A: loss of weight

Q: And the loss of hair (Albino Wister Rats; listed as 5-FU)?
A: loss of weight and hair

Q: What about the “% drug released in 24 h on exposure to caecal contents of the rat: Compression coated tablets of 5-FU coated with natural gums” value ([1]; excipient-only control rats: 83) of the same compound?
A: 52%

Q: What about the “% drug released in 24 h on exposure to caecal contents of the rat: 5-FU loaded microspheres comprising the drug and natural gums” value ([1]; excipient-only control rats: 92.20) of the same compound?
A: 41.56%
